# Where a SMILES comes first, the peptide text is derived from it. Where no end group is shown, it is not given here. [ ]: non-standard residue; d: D form. The star is where a group is joined. hArg = N=C(N)NCCCC[C@H](N)C(=O)O; Hexanoyl = CCCCCC(=O)*; Aib = CC(C)(N)C(=O)O
# Legend:
# [1] = Rat serum stability studies (remaining active peptide by DiscoveRx cAMP on CHO-VPAC2 cells); format: in vitro ADME
# Summary of the method: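 EC50 from a DiscoveRx cAMP read-out on CHO-VPAC2 cells indexes how much peptide stays active after 18 h in rat serum at 37° C without aprotinin, against an aprotinin-protected 4° C aliquot.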
# rat VPAC1 receptor = molecular target: T1, rat VPAC1 receptor (Rattus norvegicus, UniProt P30083); assay: DiscoveRx in vitro potency, CHO-PO cells transiently transfected with rat VPAC 1 receptor DNA; format: cell-based; parameters: expressed in transfected cells; host or cells: CHO-PO, transient
# T1 sequence (P30083 31-459): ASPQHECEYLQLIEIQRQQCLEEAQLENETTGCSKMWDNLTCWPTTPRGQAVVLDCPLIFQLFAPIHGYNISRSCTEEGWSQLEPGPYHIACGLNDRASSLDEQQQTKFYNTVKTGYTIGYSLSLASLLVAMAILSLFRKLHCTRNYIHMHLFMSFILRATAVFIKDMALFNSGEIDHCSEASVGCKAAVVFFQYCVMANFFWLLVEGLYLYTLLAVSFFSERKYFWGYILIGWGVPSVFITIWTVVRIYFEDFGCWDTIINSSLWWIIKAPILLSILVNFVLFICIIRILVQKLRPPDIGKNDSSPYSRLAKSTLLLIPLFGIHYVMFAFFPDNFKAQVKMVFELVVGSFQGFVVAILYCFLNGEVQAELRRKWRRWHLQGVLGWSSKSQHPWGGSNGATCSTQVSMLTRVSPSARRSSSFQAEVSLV
# Experimental: (§1) Also, the cells are washed twice. […] The stimuli are present for 30 minutes. Then, the assay buffer is gently removed.
# rat VPAC2 receptor = molecular target: T2, rat VPAC2 receptor (Rattus norvegicus, UniProt P35000); assay: DiscoveRx in vitro potency, CHO-PO cells transiently transfected with rat VPAC 2 receptor DNA; format: cell-based; parameters: expressed in transfected cells; host or cells: CHO-PO, transient
# T2 sequence (P35000 23-437): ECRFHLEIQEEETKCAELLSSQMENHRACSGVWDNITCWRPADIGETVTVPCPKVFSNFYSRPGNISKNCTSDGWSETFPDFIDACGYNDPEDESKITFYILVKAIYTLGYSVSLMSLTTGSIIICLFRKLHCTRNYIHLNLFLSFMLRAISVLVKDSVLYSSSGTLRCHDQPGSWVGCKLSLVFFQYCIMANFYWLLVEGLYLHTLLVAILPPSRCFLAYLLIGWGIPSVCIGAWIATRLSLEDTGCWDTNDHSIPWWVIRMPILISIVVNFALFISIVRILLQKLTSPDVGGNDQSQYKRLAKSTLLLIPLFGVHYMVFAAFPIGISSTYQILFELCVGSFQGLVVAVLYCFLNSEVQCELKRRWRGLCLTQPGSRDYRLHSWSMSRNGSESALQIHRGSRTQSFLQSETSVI
# Experimental: as §1
# human VPAC1 [2] = molecular target: T3, human VPAC1 (Homo sapiens, UniProt P32241); assay: Filter binding assay, membranes of cells transiently transfected with human VPAC1, 125I-labeled VIP tracer (Table 2); parameters: expressed in transfected cells; conditions: read-out: Human VPAC1 Receptor Binding
# T3 sequence (P32241 31-457): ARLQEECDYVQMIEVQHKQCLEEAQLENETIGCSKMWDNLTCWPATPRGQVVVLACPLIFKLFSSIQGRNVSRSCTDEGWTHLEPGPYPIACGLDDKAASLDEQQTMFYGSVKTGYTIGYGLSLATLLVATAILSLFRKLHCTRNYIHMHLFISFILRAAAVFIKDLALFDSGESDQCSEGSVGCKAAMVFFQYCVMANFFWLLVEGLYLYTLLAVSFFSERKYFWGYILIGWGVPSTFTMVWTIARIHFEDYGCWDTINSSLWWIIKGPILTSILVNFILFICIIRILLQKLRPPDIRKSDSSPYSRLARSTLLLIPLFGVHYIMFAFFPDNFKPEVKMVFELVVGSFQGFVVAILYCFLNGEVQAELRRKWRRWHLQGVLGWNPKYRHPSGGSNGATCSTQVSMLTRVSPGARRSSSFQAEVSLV
# Summary of the method: (§2)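 Radioligand displacement was measured with 2.5 μg membrane protein per well and roughly 40000 cpm of iodinated tracer. After a 1-hour incubation, bound and free label were separated on BSA-blocked glass-fibre filters and quantified by scintillation.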
# human PAC1 [3] = molecular target: T4, human PAC1 (Homo sapiens, UniProt P41586); assay: Filter binding assay, membranes of cells transiently transfected with human PAC1, 125I-labeled PACAP-27 tracer (Table 2); parameters: expressed in transfected cells; conditions: read-out: Human PAC1 Receptor Binding
# T4 sequence (P41586 21-468): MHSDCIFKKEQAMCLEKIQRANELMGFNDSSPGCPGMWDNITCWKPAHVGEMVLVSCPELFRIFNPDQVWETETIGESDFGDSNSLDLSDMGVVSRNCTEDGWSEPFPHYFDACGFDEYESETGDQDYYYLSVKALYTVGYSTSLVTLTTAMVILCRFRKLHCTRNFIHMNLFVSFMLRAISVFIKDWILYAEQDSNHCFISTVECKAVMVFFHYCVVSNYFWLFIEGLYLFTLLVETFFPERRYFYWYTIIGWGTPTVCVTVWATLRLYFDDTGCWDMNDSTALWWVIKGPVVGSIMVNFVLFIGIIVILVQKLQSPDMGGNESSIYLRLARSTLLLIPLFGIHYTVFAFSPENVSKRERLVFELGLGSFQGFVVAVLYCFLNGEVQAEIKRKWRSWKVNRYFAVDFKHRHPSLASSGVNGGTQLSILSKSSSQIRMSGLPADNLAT
# Summary of the method: as §2
# human VPAC2 [4] = molecular target: T5, human VPAC2 (Homo sapiens, UniProt P41587); assay: Filter binding assay, membranes of stable VPAC2 cell line, 125I-labeled VIP tracer (Table 2); conditions: read-out: Human VPAC2 Receptor Binding
# T5 construct: expressed in transfected cells
# T5 sequence (P41587 24-438): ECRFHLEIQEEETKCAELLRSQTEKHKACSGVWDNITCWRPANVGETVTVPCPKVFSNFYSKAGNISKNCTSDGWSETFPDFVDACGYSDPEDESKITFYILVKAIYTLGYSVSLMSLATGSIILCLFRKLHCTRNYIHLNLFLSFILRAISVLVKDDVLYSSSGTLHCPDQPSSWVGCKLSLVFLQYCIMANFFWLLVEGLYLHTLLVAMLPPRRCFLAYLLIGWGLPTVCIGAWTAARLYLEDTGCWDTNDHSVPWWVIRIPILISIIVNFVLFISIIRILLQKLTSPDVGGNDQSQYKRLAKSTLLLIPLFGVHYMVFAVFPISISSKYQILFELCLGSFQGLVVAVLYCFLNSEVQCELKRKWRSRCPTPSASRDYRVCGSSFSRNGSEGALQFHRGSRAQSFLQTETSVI
# Summary of the method: as §2
# human VPAC2 [5] = molecular target: T5, human VPAC2; assay: Alpha screen cAMP in vitro potency, human VPAC2 receptor; format: cell-based; conditions: cAMP generation; single result from two analyses performed in a single run; read-out: Human VPAC2 Receptor: Alpha Screen EC50
# Summary of the method: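 Stimulated cAMP accumulation is read by AlphaScreen after 60 min exposure of 50,000 non-enzymatically harvested cells to compound, followed by lysis with donor beads.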
# human VPAC1 [6] = molecular target: T3, human VPAC1; assay: DiscoveRx cAMP in vitro potency, CHO-PO cells transiently transfected with human VPAC1 receptor; format: cell-based; parameters: expressed in transfected cells; host or cells: CHO-PO, transient (Lipofectamine); conditions: cAMP generation; mean of two independent runs; read-out: Human VPAC1 Receptor: DiscoveRx EC50
# Experimental: (§3) Also, the cells are washed twice. The cells are incubated in assay buffer plus IBMX for 15 minutes at room temperature. […] The stimuli are present for 30 minutes. Then, the assay buffer is gently removed. […] At day 3, the assay described above for the VPAC2 receptor cell line is performed.
# human PAC1 [7] = molecular target: T4, human PAC1; assay: DiscoveRx cAMP in vitro potency, CHO-PO cells transiently transfected with human PAC1 receptor; format: cell-based; parameters: expressed in transfected cells; host or cells: CHO-PO, transient (Lipofectamine); conditions: cAMP generation; mean of two independent runs; read-out: Human PAC1 Receptor: DiscoveRx EC50
# Experimental: as §3
# human VPAC2 [8] = molecular target: T5, human VPAC2; assay: DiscoveRx cAMP in vitro potency, CHO-S cell line stably expressing human VPAC2 receptor; format: cell-based; conditions: cAMP generation; mean of two independent runs
# Experimental: as §3
Molecule,Rat Serum Stability (estimated purity in % after 18 hours) [1],EC50 (rat VPAC1 receptor),EC50 (rat VPAC2 receptor),IC50 (human VPAC1 [2]),IC50 (human PAC1 [3]),IC50 (human VPAC2 [4]),EC50 (human VPAC2 [5]),EC50 (human VPAC1 [6]),EC50 (human PAC1 [7]),EC50 (human VPAC2 [8]),Rat Serum Stability (Estimated purity in % after 72 hours) [1]
Hexanoyl-HSDAVFTDNYTRLR[Aib]QLAAK[Aib]YLQSIKNKRYGGPSSGAPPPS [Agonist P284],27.89%,0.44 nM,0.07 nM,> 3000 nM,> 25000 nM,0.38 nM,0.18 nM,–,–,–,–
H-HSDAVTTDNYTRLRKQVAAKKYLQSIKNKRYGGPSSGAPPPS [Agonist P65],–,–,–,–,–,–,–,> 1000 nM,0.7 nM,> 1000 nM,–
HSDAVVTDNYTRLRKQVAAKKYLQSIKNKRYGGPSSGAPPPS [Agonist P66],–,–,–,–,–,–,–,< 1000 nM,–,> 1000 nM,–
Hexanoyl-HSDAVFTDNYTRL[Aib]KQVAAK[Aib]YLQSIKNKRYGGPSSGAPPPS [Agonist P244],30.64%,127 nM,–,> 3000 nM,> 25000 nM,26.9 nM,–,–,–,–,6.2%
Hexanoyl-HSEAVFTENYTRLR[Aib]QVAA[Aib]KYLQSIKNKRYGGPSSGAPPPS [Agonist P314],8.44%,29.2 nM,–,> 3000 nM,> 25000 nM,0.57 nM,0.22 nM,–,–,–,–
Hexanoyl-HSDAVFTDNYTRLLAKVAAKKYLQSIKNKRYGGPSSGAPPPS [Agonist P135],–,0.02 nM,0.05 nM,251 nM,748 nM,0.43 nM,0.18 nM,–,–,–,–
HSDAVFTDNYTRLRKQVAAKKYLQSIRNKRYGGPSSGAPPPS [Agonist P23],–,–,–,150 nM,–,0.92 nM,–,0.9 nM,–,1.41 nM,–
Hexanoyl-HSDAVFTDNYTRLR[Aib]QIAA[Aib]KYLQSIKNKRYGGPSSGAPPPS [Agonist P322],42.18%,0.5 nM,0.04 nM,> 3000 nM,> 25000 nM,0.4 nM,0.22 nM,–,–,–,1.3%
CCCCCC(=O)N[C@@H](Cc1c[nH]cn1)C(=O)N[C@@H](CO)C(=O)N[C@@H](CC(=O)O)C(=O)N[C@@H](C)C(=O)N[C@H](C(=O)N[C@@H](Cc1ccccc1)C(=O)N[C@H](C(=O)N[C@@H](CC(=O)O)C(=O)N[C@@H](CC(N)=O)C(=O)N[C@@H](Cc1ccc(O)cc1)C(=O)N[C@H](C(=O)N[C@@H](CCCCNC(=N)N)C(=O)N[C@@H](CC(C)C)C(=O)N[C@@H](CCCNC(=N)N)C(=O)NC(C)(C)C(=O)N[C@@H](CCC(N)=O)C(=O)N[C@H](C(=O)N[C@@H](C)C(=O)N[C@@H](C)C(=O)NC(C)(C)C(=O)N[C@@H](CCCCN)C(=O)N[C@@H](Cc1ccc(O)cc1)C(=O)N[C@@H](CC(C)C)C(=O)N[C@@H](CCC(N)=O)C(=O)N[C@@H](CO)C(=O)N[C@H](C(=O)N[C@@H](CCCCNC(=N)N)C(=O)N[C@@H](CCCCNC(=N)N)C(=O)NCC(=O)NCC(=O)N1CCC[C@H]1C(=O)N[C@@H](CO)C(=O)N[C@@H](CO)C(=O)NCC(=O)N[C@@H](C)C(=O)N1CCC[C@H]1C(=O)N1CCC[C@H]1C(=O)N1CCC[C@H]1C(=O)N[C@@H](CS)C(N)=O)[C@@H](C)CC)C(C)C)[C@@H](C)O)[C@@H](C)O)C(C)C [Agonist P333] (Hexanoyl-HSDAVFTDNYT[hArg]LR[Aib]QVAA[Aib]KYLQSI[hArg][hArg]GGPSSGAPPPC-NH2),40.90%,1.37 nM,0.13 nM,> 3000 nM,–,9.71 nM,0.75 nM,–,–,–,61.2%
